Data on five compounds can be found in BindingDB's records for PubMed 32711292 (n/a, 2020).

Molecules are shown by their SMILES.

The target of test [1] is T1, Maltase-glucoamylase (Homo sapiens, UniProt O43451). In words: Inhibition of alpha-glucosidase (unknown origin) by HPLC analysis.
Test [2] concerns the target T1, Maltase-glucoamylase. In words: Inhibition of alpha-glucosidase (unknown origin).

T1 sequence (O43451 whole entry): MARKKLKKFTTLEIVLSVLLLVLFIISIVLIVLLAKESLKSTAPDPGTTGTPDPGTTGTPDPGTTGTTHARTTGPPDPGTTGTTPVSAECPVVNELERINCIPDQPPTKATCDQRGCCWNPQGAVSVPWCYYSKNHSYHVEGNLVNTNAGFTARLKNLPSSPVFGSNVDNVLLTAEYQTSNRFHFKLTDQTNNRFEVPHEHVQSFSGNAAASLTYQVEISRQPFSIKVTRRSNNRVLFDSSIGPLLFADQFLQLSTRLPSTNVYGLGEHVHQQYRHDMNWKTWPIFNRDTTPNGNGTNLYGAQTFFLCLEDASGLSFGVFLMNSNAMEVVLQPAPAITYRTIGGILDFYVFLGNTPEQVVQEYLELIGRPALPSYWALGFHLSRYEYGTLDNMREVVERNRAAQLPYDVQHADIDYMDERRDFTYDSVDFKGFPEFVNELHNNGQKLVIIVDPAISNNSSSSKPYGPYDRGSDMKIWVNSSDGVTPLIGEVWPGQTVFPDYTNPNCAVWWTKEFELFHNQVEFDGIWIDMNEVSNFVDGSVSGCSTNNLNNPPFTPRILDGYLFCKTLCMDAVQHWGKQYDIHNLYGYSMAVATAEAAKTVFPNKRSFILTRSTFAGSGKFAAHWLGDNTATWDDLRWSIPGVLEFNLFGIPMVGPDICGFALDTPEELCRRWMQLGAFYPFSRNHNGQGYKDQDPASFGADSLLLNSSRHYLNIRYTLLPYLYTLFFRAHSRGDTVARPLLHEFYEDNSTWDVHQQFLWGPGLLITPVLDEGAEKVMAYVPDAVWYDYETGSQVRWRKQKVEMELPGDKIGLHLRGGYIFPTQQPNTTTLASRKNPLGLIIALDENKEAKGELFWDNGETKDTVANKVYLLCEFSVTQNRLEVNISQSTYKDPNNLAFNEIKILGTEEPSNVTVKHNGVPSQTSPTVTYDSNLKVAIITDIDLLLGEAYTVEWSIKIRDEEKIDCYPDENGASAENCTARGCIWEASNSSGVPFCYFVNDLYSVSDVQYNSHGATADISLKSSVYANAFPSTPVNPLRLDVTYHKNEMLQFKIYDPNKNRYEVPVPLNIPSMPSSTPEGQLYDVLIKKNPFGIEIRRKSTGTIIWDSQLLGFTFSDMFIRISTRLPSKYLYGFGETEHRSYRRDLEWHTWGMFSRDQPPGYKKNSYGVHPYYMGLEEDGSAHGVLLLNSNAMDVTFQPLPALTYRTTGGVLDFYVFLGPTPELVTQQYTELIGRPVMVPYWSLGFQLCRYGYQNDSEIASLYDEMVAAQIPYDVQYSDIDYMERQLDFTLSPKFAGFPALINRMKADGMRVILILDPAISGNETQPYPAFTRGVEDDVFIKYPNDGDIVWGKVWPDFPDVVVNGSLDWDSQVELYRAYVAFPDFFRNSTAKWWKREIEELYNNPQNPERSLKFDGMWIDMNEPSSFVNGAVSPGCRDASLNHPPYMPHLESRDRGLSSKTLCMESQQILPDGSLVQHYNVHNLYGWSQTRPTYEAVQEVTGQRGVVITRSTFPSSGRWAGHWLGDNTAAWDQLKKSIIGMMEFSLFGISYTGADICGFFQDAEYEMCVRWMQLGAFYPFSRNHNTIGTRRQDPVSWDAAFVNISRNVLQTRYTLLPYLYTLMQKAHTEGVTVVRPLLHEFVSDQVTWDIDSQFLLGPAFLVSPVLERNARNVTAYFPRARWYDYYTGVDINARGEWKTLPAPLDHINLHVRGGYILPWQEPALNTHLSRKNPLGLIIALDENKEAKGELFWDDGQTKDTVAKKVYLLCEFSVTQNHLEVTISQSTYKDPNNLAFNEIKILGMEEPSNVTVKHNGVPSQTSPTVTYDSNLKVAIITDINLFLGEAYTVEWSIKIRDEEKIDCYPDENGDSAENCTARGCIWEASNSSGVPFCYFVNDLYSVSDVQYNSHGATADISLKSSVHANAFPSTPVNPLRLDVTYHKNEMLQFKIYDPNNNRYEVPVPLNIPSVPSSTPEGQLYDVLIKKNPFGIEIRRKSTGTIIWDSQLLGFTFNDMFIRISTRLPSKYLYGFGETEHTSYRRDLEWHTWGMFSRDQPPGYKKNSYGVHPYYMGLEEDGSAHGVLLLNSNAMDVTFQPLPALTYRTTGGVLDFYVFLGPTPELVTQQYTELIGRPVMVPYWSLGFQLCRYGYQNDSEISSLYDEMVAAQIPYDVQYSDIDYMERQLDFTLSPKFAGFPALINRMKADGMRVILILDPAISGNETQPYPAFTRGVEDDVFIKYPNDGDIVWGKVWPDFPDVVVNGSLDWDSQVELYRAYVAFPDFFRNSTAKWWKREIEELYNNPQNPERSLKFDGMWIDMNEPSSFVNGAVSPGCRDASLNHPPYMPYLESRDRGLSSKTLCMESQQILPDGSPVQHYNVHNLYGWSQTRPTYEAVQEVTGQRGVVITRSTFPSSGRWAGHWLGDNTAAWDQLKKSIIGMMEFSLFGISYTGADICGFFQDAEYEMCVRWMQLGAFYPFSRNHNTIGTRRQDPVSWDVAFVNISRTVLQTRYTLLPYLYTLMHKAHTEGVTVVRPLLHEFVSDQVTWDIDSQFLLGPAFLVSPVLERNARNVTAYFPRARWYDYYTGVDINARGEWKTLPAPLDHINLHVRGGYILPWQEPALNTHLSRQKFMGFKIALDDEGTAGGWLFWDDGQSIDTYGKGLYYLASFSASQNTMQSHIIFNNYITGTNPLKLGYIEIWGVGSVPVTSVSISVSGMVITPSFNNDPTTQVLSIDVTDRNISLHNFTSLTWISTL

As usually defined, the IC50 is the concentration needed to halve the response being measured. Low readings indicate higher potency, high ones lower potency. For the compound `COc1ccc(CCc2cc(O)c(O)c(OC)c2)cc1`, at Maltase-glucoamylase [1], half-maximal inhibition (IC50) required 200 µM.

In turn, `COc1cc([C@@H]2Oc3cc(CCc4ccc(O)cc4)cc(OC)c3O[C@H]2CO)cc(OC)c1O` gave an IC50 on Maltase-glucoamylase [1] of 9460 µM. Take `COc1cc(CCc2cccc(O)c2)cc(O)c1O`: half-maximal inhibition against Maltase-glucoamylase [1] (IC50) was put at 214 µM. Against the preceding compound, the IC50 is about 44-fold lower. With `COc1cc(O)cc(CCc2cccc(O)c2)c1` [Batatasin III (4)], the IC50 on Maltase-glucoamylase [2] turned out to be 149 µM.

On Maltase-glucoamylase [2], `COc1cc(O)cc(CCc2ccc(O)c(OC)c2)c1` [GIGANTOL] showed an IC50 of 103 µM.
